Assay type in all cases: in vivo, human
The test system of data set [1] is patients suffering from Mild Cognitive Impairment due to Parkinson's Disease (PD-MCI). The data set is described as follows: Tests of Social Cognition (ERT, EBT), open label study. Particulars: 3 mg oral daily for 14 days, vs baseline, Clinic/Weekly. Here is the method: (§1) The safety and tolerability of Compound 1 and its effects on cognitive, neuropsychiatric, and motor symptoms in patients suffering from Mild Cognitive Impairment due to Parkinson's Disease (PD-MCI) was evaluated in an open label study. Eligible participants with a confirmed diagnosis of idiopathic PD by 2015 Movement Disorder Society (MDS) criteria (Berardelli et al., EFNS/MDS-ES/ENS recommendations for the diagnosis of Parkinson's disease. Eur J Neurol. 2013; 20:16-34) at Screening and who met MDS Task Force Criteria for MCI in PD (excluding requirement for UK PD Brain Bank diagnostic criteria) received 3.0 mg of Compound 1 (oral dose) daily for 14 days. Participants were instructed to take the daily dose of Compound 1 in the morning within 1 hour of initiating a meal containing approximately 30 g of fat. The study protocol was as follows and is depicted in FIG. 1.
Beginning on Day 1 and continuing through Day 14, participants self-administered 3.0 mg Compound 1 (as six 0.5-mg oral tablets), once per day in the morning within 1 hour after initiating a meal containing approximately 30 g of fat, in accordance with the guidelines provided in a nutritional information brochure. […]

For data set [2] the test system is unchanged. Nature of the data set: Tests of Attention and Psychomotor Performance (RTI, PVT), open label study. The protocol: as §1
(§2) Beginning on Day 1 and continuing through Day 14, participants self-administered 3.0 mg Compound 1 (as six 0.5-mg oral tablets), once per day in the morning within 1 hour after initiating a meal containing approximately 30 g of fat, in accordance with the guidelines provided in a nutritional information brochure. Participants continued to complete daily assessments of cognitive performance and sleep via mobile device either remotely (at home), or in the clinic at scheduled visits and tracked Compound 1 dosing and predose food intake in a participant diary.
(§3) Eight patients (male and female) aged 50 to 75 years old with mild cognitive impairment due to Parkinson's disease received 3 mg as oral tablets of Compound 1 daily for 2-weeks.
The tests of Attention and Psychomotor Performance included Reaction Time (RTI), which assesses how fast the subject can respond to a stimulus (weekly measure); Psychomotor Vigilance Task (PVT), which assesses how fast can the subject respond to a stimulus (daily measure).

For data set [3] the test system is unchanged. The data set is described as follows: Tests of Executive Functioning (MTT, OTS, SWM, DSST, 2-Back), open label study. Here is the method:
as §1, §2, §3
The tests of Executive Functioning included (1) Multitasking Test (MTT), which assesses how well the subject manages conflicting information; (2) One Touch Stockings of Cambridge (OTS), which assesses how well the subject plans, holds onto, and manipulates information to solve a puzzle; (3) Spatial Working Memory (SWM), which assesses how well the subject develops and uses a strategy to find hidden information; (4) Digit Symbol Substitution Task (DSST), which assesses how efficiently can the subject complete a demanding task (daily measure); and (5) Two-Back Test (NBX), which asks is the symbol the same as that shown two symbols ago.

Data set [4] has the same test system. Nature of the data set: Tests of Learning and Memory (PAL, PRM, Verbal Recognition Memory, Spatial Span), open label study. Here is the method: as §1, §2, §3
The tests of Learning and Memory included Paired Associates Learning (PAL), which assesses how well the subject remembers the location of hidden objects; Pattern Recognition Memory (PRM), which assesses how well the subject remembers a pattern; and Verbal Recognition Memory […], which assesses how well the subject stores and retrieves verbal information.

Data set [5] has the same test system. Nature of the data set: Safety and tolerability (adverse events), open label study. Particulars: 3 mg oral daily for 14 days, follow-up to Day 28. The protocol:
as §1
At scheduled visits during the Treatment Period, participants completed the mobile device tasks under staff supervision. At scheduled clinic visits during the Treatment Period, safety, efficacy, and PK procedures were performed. In addition to weekly clinic visits, study staff contacted participants by telephone on Day 4 to document any TEAEs and/or changes in concomitant medications.
Participants were contacted by telephone on Day 21 to document any AEs and/or changes in concomitant medications. Participants returned to the clinic on Day 28 (±2 days) for a follow-up visit.
The Primary objective of the study was to assess (1) the percentage of Participants With at Least One Treatment-Emergent Adverse Event (TEAE) (Time Frame: Up to Day 28).

Setting [6] is: 3 mg oral daily for 14 days, vs baseline, Clinic/Weekly.
[7] abbreviates: PD-MCI patients, 3 mg oral daily for 14 days, vs baseline, Clinic/Weekly.

We go through 1 molecule from patent publication US20240252514A1, “NEUROACTIVE STEROID FOR THE TREATMENT OF MILD COGNITIVE IMPAIRMENT ASSOCIATED WITH PARKINSON'S DISEASE” (SAGE THERAPEUTICS, INC., priority 2021, published 2024).

“Also recorded” adds a separate entry of the source.

For the molecule `C[C@H](CC[C@](C)(O)C(F)(F)F)[C@H]1CC[C@H]2[C@@H]3CC=C4C[C@@](C)(O)CC[C@]4(C)[C@H]3CC[C@]12C` [Compound 1], in data set [1], the “Trend, Social Cognition: Emotional Bias” value was “Improvement” and the “Trend, Social Cognition: Emotional Recognition” value is “Neutral”. Further, in data set [2] (setting [6]), the “Trend, Attention & Psychomotor Speed: Reaction Time” value is on record as “Neutral”. For the same molecule, the “Trend, Attention & Psychomotor Speed: Psychomotor Vigilance” value in data set [2] (3 mg oral daily for 14 days, vs baseline, Mobile/Daily) is listed as “Neutral”. For the same molecule, the “Performance in tests of attention and psychomotor speed (overall)” value in data set [2] (3 mg oral daily, 14 days (FIG. 6)) is “neutral results; also recorded: no appreciable change”. Besides, in data set [3] (setting [7]), the “Trend, Executive Functioning: 2-Back” value was “Improvement”; the “Trend, Executive Functioning: Multitasking” value is “Improvement”; the “Trend, Executive Functioning: One Touch Stockings” value is on record as “Improvement”; the “Trend, Executive Functioning: Spatial working Memory” value was “Improvement”. Besides, the “Trend, Executive Functioning: DSST” value in data set [3] (PD-MCI patients, 3 mg oral daily for 14 days, vs baseline, Mobile/Daily) is “Improvement”. The “Performance in the cognitive domain of executive function (five tests, overall)” value in data set [3] (PD-MCI patients, 3 mg oral daily, during 14 days of treatment, vs baseline (FIGS. 2-3)) is “performance improvements from baseline; also recorded: improved performance”. The “DSST improvement over baseline” value in data set [3] (PD-MCI subjects, 3 mg oral daily, Treatment Day 14 (FIG. 3)) is on record as roughly 27%. In data set [4] (setting [6]), the “Trend, Learning and Memory: Paired Associates” value is recorded as “Improvement”; the “Trend, Learning and Memory: Pattern recognition” value is “Improvement”; the “Trend, Learning and Memory: Spatial Span” value was “Neutral”; the “Trend, Learning and Memory: Verbal Memory” value was “Improvement”. Besides, in data set [4] (3 mg oral daily, 14 days, vs baseline (FIGS. 4 and 5)), the “Performance in the domains of learning and memory (overall)” value is listed as “improved performance from baseline”. In data set [5], the Serious adverse events result was “no serious adverse events”, the Tolerability entry is reported as “generally well tolerated” and the “Treatment emergent adverse events related to the compound” value was “no treatment emergent adverse events were determined to be related to Compound 1”.
